Each compound was assayed against T1, GLP-1R (Homo sapiens, UniProt P43220) (assay: EC20 GLP-1(9-36) PAM cAMP Assay: dose response of compound in the presence of fixed concentration of GLP-1(9-36)). Details: GLP-1R CRE-bla CHO-K1 cells, in presence of fixed concentration of GLP-1(9-36), 30 min at 37° C.
T1 construct: host or cells: CRE-bla CHO-K1
Type: cell-based
Description: EC20 GLP-1(9-36) PAM cAMP Assay: Dose Response of Compound in the Presence of Fixed Concentration of GLP-1 (9-36).
GLP-1R CRE-bla CHO-K1 cells cultured in growth medium (DMEM-High glucose, 10% dialyzed FBS, 0.1 mM NEAA, 25 mM Hepes, 100 U/mL penicillin/100 μg/mL streptomycin, 5 μg/mL Blasticidin, 600 μg/mL Hygromycin) were trypsinized and plated in suspension into 384 well white flat bottom plates at 5000 cells/well in 12 μL assay buffer (Hanks Balanced Salt solution, 10 mM Hepes, 0.1% BSA, 10 pH 7.4). A 5× compound dose response curve (12-point) was generated in assay buffer containing 1.5 mM IBMX, 4% DMSO. GLP-1(9-36) was diluted to 4.2 μM in assay buffer containing 1.5 mM IBMX and 4% DMSO. The 5× compound dose response was added (3 μL), followed by 0.5 μL of GLP-1(9-36) and cells were incubated for 30 min at 37° C. Direct detection of cAMP was carried out using DiscoveRx HitHunter cAMP kit according to manufacturer's instructions and luminescence was read using a SpectraMax M5 plate reader. Luminescence was converted to total cAMP using a cAMP standard curve and data was analyzed by non-linear regression to determine the EC50 and Emax.

T1 sequence (P43220 24-463): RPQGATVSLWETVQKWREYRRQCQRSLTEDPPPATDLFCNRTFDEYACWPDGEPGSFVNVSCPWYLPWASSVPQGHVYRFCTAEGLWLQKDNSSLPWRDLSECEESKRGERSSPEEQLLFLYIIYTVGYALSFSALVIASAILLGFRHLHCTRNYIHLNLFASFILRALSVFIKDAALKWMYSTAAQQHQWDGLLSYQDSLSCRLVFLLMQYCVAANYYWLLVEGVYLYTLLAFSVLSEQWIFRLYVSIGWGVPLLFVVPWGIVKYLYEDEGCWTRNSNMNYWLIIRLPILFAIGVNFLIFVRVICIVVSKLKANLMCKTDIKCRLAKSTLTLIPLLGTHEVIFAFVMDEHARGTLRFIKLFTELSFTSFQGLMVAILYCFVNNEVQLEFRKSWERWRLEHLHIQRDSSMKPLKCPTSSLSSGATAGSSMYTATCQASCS
T1 sequence (P01275 100-127 partner limits assumed): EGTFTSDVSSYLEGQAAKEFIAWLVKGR

`CCCCCC1CCC(C2CC=C(c3cnc(-c4ccc(C[C@H](NC(=O)c5ccc(C(C)(C)C)s5)C(=O)N5CC(C(=O)O)C5)cc4)nc3)CC2)CC1` (mixture of isomers) [Compound 4, 1-((2S)-2-(5-(tert-butyl)thiophene-2-carboxamido)-3-(4-(5-(4′-pentyl-[1,1′-bi(cyclohexan)]-3-en-4-yl)pyrimidin-2-yl)phenyl)propanoyl)azetidine-3-carboxylic acid] and `CCCCCC1CCC(C2CC=C(c3cnc(-c4ccc(C[C@H](NC(=O)c5ccc(C(C)(C)C)s5)C(=O)N5CC[C@H](C(=O)O)C5)cc4)nc3)CC2)CC1` (some centres unmarked) [Compound 3] cannot be ordered by EC50: under 500 nM for the first, under 500 nM for the second.

`CCCC1CCC(C2CC=C(c3cnc(-c4ccc(C[C@H](NC(=O)c5ccc(C(C)(C)C)s5)C(=O)N5CC(C(=O)O)C5)cc4)nc3)CC2)CC1` (mixture of isomers) [Compound 6, 1-((2S)-2-(5-(tert-butyl)thiophene-2-carboxamido)-3-(4-(5-(4′-propyl-[1,1′-bi(cyclohexan)]-3-en-4-yl)pyrimidin-2-yl)phenyl)propanoyl)azetidine-3-carboxylic acid] and `CC[C@H]1CC[C@H](C2CC=C(c3cnc(-c4ccc(C[C@H](NC(=O)c5ccc(C(C)(C)C)s5)C(=O)N5CC(C(=O)O)C5)cc4)nc3)CC2)CC1` (mixture of isomers) [Compound 76, 1-((S)-2-(5-(tert-butyl)thiophene-2-carboxamido)-3-(4-(5-((1RS,1′r,4′RS)-4′-ethyl-[1,1′-bi(cyclohexan)]-3-en-4-yl)pyrimidin-2-yl)phenyl)propanoyl)azetidine-3-carboxylic acid] cannot be ordered by EC50: under 500 nM for the first, under 500 nM for the second.

Compared with `CCC[C@H]1CC[C@H](C2CC=C(c3cnc(-c4ccc(C[C@H](NC(=O)c5ccc(C(C)(C)C)cc5)C(=O)N5CC(C(=O)O)C5)cc4)nc3)CC2)CC1` (mixture of isomers) [Compound 14, 1-((S)-2-(4-(tert-butyl)benzamido)-3-(4-(5-((1RS,1′s,4′RS)-4′-propyl-[1,1′-bi(cyclohexan)]-3-en-4-yl)pyrimidin-2-yl)phenyl)propanoyl)azetidine-3-carboxylic acid], `CCCC1CCC(C2CC=C(c3cnc(-c4ccc(C[C@H](NC(=O)c5ccc(C(C)(C)C)nc5)C(=O)N5CC(C(=O)O)C5)cc4)nc3)CC2)CC1` (some centres unmarked) [Compound 29] is higher in EC50: under 500 nM for the first, 500 to 2500 nM for the second.

`CC(C)(C)c1ccc(C(=O)N[C@@H](Cc2ccc(-c3ncc(C4=CCC([C@H]5CC[C@H](C)CC5)CC4)cn3)cc2)C(=O)N2CC(C(=O)O)C2)s1` (mixture of isomers) [Compound 44, 1-((S)-2-(5-(tert-butyl)thiophene-2-carboxamido)-3-(4-(5-((1RS,1′r,4′RS)-4′-methyl-[1,1′-bi(cyclohexan)]-3-en-4-yl)pyrimidin-2-yl)phenyl)propanoyl)azetidine-3-carboxylic acid] and `CCCC1CCC(C2CC=C(c3cnc(-c4ccc(C[C@H](NC(=O)c5ccc(C(C)(C)C)s5)C(=O)N5CC[C@H](C(=O)O)C5)cc4)nc3)CC2)CC1` (stereo partly drawn) [Compound 7, (3S)-1-((2S)-2-(5-(tert-butyl)thiophene-2-carboxamido)-3-(4-(5-(4′-propyl-[1,1′-bi(cyclohexan)]-3-en-4-yl)pyrimidin-2-yl)phenyl)propanoyl)pyrrolidine-3-carboxylic acid] cannot be ordered by EC50: under 500 nM for the first, under 500 nM for the second.

Compared with `CC[C@H]1CC[C@H](C2CC=C(c3cnc(-c4ccc(C[C@H](NC(=O)c5ccc(C(C)(C)C)s5)C(=O)NS(C)(=O)=O)cc4)nc3)CC2)CC1` (mixture of isomers) [Compound 109, 5-(tert-butyl)-N—((S)-3-(4-(5-((1RS,1′r,4′RS)-4′-ethyl-[1,1′-bi(cyclohexan)]-3-en-4-yl)pyrimidin-2-yl)phenyl)-1-(methylsulfonamido)-1-oxopropan-2-yl)thiophene-2-carboxamide], `CCCC1CCC(C2CC=C(c3cnc(-c4ccc(C[C@H](NC(=O)c5ccc(C(C)(C)C)s5)C(=O)O)cc4)nc3)CC2)CC1` (some centres unmarked) [Compound 9] is higher in EC50: under 500 nM for the first, 500 to 2500 nM for the second. The first is the more potent here.

`CC(C)(C)c1ccc(C(=O)N[C@@H](Cc2ccc(-c3ncc(C4=CCC([C@H]5CC[C@H](C)CC5)CC4)cn3)cc2)C(=O)O)s1` (mixture of isomers) [Compound 123, (S)-2-(5-(tert-butyl)thiophene-2-carboxamido)-3-(4-(5-((1RS,1′r,4′RS)-4′-methyl-[1,1′-bi(cyclohexan)]-3-en-4-yl)pyrimidin-2-yl)phenyl)propanoic acid] and `CCCC1CCC(C2CC=C(c3cnc(-c4ccc(C[C@H](NC(=O)c5ccc(C(C)(C)C)s5)C(=O)N[C@H](C)C(=O)O)cc4)nc3)CC2)CC1` (stereo partly drawn) [Compound 1, ((2S)-2-(5-(tert-butyl)thiophene-2-carboxamido)-3-(4-(5-(4′-propyl-[1,1′-bi(cyclohexan)]-3-en-4-yl)pyrimidin-2-yl)phenyl)propanoyl)-D-alanine] cannot be ordered by EC50: under 500 nM for the first, under 500 nM for the second.

Compared with `CCCCCC1CCC(C2CC=C(c3cnc(-c4ccc(C[C@H](NC(=O)c5ccc(C(C)(C)C)s5)C(=O)N[C@H](C)C(=O)O)cc4)nc3)CC2)CC1` (some centres unmarked) [Compound 2], `CCCCCC1CCC(C2CC=C(c3cnc(-c4ccc(C[C@H](NC(=O)c5ccc(C(C)(C)C)s5)C(=O)N5CCC[C@H]5C(=O)O)cc4)nc3)CC2)CC1` (some centres unmarked) [Compound 5] is lower in EC50: 5000 to 10000 nM for the first, 500 to 2500 nM for the second. The second is the more potent here.

`CCCC1CCC(C2CC=C(c3cnc(-c4ccc(C[C@H](NC(=O)c5ccc(C(C)(C)C)s5)C(=O)N5CCC[C@H]5C(=O)O)cc4)nc3)CC2)CC1` (some centres unmarked) [Compound 8] and `CCCC1CCC(C2CC=C(c3cnc(-c4ccc(C[C@H](NC(=O)c5ccc(C(C)C)s5)C(=O)N5CC(C(=O)O)C5)cc4)nc3)CC2)CC1` (some centres unmarked) [Compound 17] cannot be ordered by EC50: under 500 nM for the first, under 500 nM for the second.

`C[C@@H](NC(=O)[C@H](Cc1ccc(-c2ncc(C3=CCC(c4ccccc4)CC3)cn2)cc1)NC(=O)c1ccc(C(C)(C)C)s1)C(=O)O` (some centres unmarked) [Compound 10] and `CC(C)(C)c1ccc(C(=O)N[C@@H](Cc2ccc(-c3ncc(C4=CCC(c5ccccc5)CC4)cn3)cc2)C(=O)N2CC(C(=O)O)C2)s1` (some centres unmarked) [Compound 11] cannot be ordered by EC50: under 500 nM for the first, under 500 nM for the second.

First: CCCC1CCC(C2CCC(c3cnc(-c4ccc(C[C@H](NC(=O)c5ccc(C(C)C)cc5)C(=O)N5CC(C(=O)O)C5)cc4)nc3)CC2)CC1 (some centres unmarked) [Compound 12]
Second: CCCC1CCC(C2CCC(c3cnc(-c4ccc(C[C@H](NC(=O)c5ccc(CC)cc5)C(=O)N5CC(C(=O)O)C5)cc4)nc3)CC2)CC1 (some centres unmarked) [Compound 20]
The EC50 of the first is lower: 2500 to 5000 nM for the first, 5000 to 10000 nM for the second. The first is the more potent here.

`CCCC1CCC(C2CC=C(c3cnc(-c4ccc(C[C@H](NC(=O)c5ccc(C(C)C)cc5)C(=O)N5CC(C(=O)O)C5)cc4)nc3)CC2)CC1` (some centres unmarked) [Compound 13] and `CCCC1CCC(C2CC=C(c3cnc(-c4ccc(C[C@H](NC(=O)c5ccc(CC(C)C)cc5)C(=O)N5CC(C(=O)O)C5)cc4)nc3)CC2)CC1` (some centres unmarked) [Compound 23] cannot be ordered by EC50: under 500 nM for the first, under 500 nM for the second.

Compared with `CCCC1CCC(C2CC=C(c3cnc(-c4ccc(C[C@H](NC(=O)c5cnc(C(C)(C)C)nc5)C(=O)N5CC(C(=O)O)C5)cc4)nc3)CC2)CC1` (some centres unmarked) [Compound 15], `CCCC1CCC(C2CC=C(c3cnc(-c4ccc(C[C@H](NC(=O)c5cnn(C(C)(C)C)c5)C(=O)N5CC(C(=O)O)C5)cc4)nc3)CC2)CC1` (some centres unmarked) [Compound 19] is higher in EC50: under 500 nM for the first, 500 to 2500 nM for the second.

First: CCCC1CCC(C2CCC(c3cnc(-c4ccc(C[C@H](NC(=O)c5ccc(C(C)C)s5)C(=O)N5CC(C(=O)O)C5)cc4)nc3)CC2)CC1 (some centres unmarked) [Compound 16]
Second: CCCC1CCC(C2CCC(c3cnc(-c4ccc(C[C@H](NC(=O)c5ccc(C(C)(C)C)nc5)C(=O)N5CC(C(=O)O)C5)cc4)nc3)CC2)CC1 (some centres unmarked) [Compound 28]
The EC50 of the first is lower: 500 to 2500 nM for the first, 5000 to 10000 nM for the second. The first is the more potent here.

First: CCCC1CCC(C2CCC(c3cnc(-c4ccc(C[C@H](NC(=O)c5cnn(C(C)(C)C)c5)C(=O)N5CC(C(=O)O)C5)cc4)nc3)CC2)CC1 (some centres unmarked) [Compound 18]
Second: CCCC1CCC(C2CCC(c3cnc(-c4ccc(C[C@H](NC(=O)c5ccc(C6(C)CC6)cc5)C(=O)N5CC(C(=O)O)C5)cc4)nc3)CC2)CC1 (some centres unmarked) [Compound 25]
The EC50 of the first is higher: 5000 to 10000 nM for the first, 2500 to 5000 nM for the second. The second is the more potent here.

`CCCC1CCC(C2CC=C(c3cnc(-c4ccc(C[C@H](NC(=O)c5ccc(CC)cc5)C(=O)N5CC(C(=O)O)C5)cc4)nc3)CC2)CC1` (some centres unmarked) [Compound 21] and `CCCc1ccc(C(=O)N[C@@H](Cc2ccc(-c3ncc(C4=CCC(C5CCC(CCC)CC5)CC4)cn3)cc2)C(=O)N2CC(C(=O)O)C2)cc1` (some centres unmarked) [Compound 22] cannot be ordered by EC50: under 500 nM for the first, under 500 nM for the second.

`CCCC1CCC(C2CC=C(c3cnc(-c4ccc(C[C@H](NC(=O)c5ccc(C6CC6)cc5)C(=O)N5CC(C(=O)O)C5)cc4)nc3)CC2)CC1` (some centres unmarked) [Compound 24] and `CCCC1CCC(C2CC=C(c3cnc(-c4ccc(C[C@H](NC(=O)c5ccc(C6(C)CC6)cc5)C(=O)N5CC(C(=O)O)C5)cc4)nc3)CC2)CC1` (some centres unmarked) [Compound 26] cannot be ordered by EC50: under 500 nM for the first, under 500 nM for the second.

First: CCCC1CCC(C2CC=C(c3cnc(-c4ccc(C[C@H](NC(=O)c5ccc(OC(C)C)cc5)C(=O)N5CC(C(=O)O)C5)cc4)nc3)CC2)CC1 (some centres unmarked) [Compound 27]
Second: CCCC1CCC(C2CC=C(c3cnc(-c4ccc(C[C@H](NC(=O)c5ccc(C(C)=O)cc5)C(=O)N5CC(C(=O)O)C5)cc4)nc3)CC2)CC1 (some centres unmarked) [Compound 30]
The EC50 of the first is lower: under 500 nM for the first, 500 to 2500 nM for the second.

With `CCCC1CCC(C2CC=C(c3cnc(-c4ccc(C[C@H](NC(=O)c5ccc(CC)s5)C(=O)N5CC(C(=O)O)C5)cc4)nc3)CC2)CC1` (stereo partly drawn) [Compound 31, 1-((S)-2-(5-ethylthiophene-2-carboxamido)-3-(4-(5-((1RS,1′s,4′RS)-4′-propyl-[1,1′-bi(cyclohexan)]-3-en-4-yl)pyrimidin-2-yl)phenyl)propanoyl)azetidine-3-carboxylic acid] the EC50 was under 500 nM.

Source: patent US9474755B2, “GLP-1 receptor modulators” (Receptos, Inc., priority 2014, dated 2016)
